We go through seven molecules from US10011571B2, “Preparation method for aromatic heterocyclic compound used as selective JAK3 and/or JAK1 kinase inhibitor and application of aromatic heterocyclic compound” (SHENZHEN CHIPSCREEN BIOSCIENCES, LTD., priority 2014, dated 2018).

One experiment concerns the target JAK3 (Homo sapiens (Human), UniProt P52333). Briefly: Z'-LYTE enzymatic activity detection, JAK3. Type of experiment: biochemical. To be noted: test compound 30 nM; for inhibition at 0.03 µM: read-out: JAK3 % inhibitory rate @30 nM. The method, then: (§1) The basic principle of in vitro enzymatic activity assay is based on the difference between the intensities of fluorescence signals generated at different wavelengths (445 nm and 520 nm) from the phosphorylated substrate and non-phosphorylated substrate, in which the specific fluorescence-labeled substrate is phosphorylated by the kinase. When different test compounds are added, the inhibition of kinase activity is represented as the different degrees of substrate phosphorylation, and thus as the different intensities of fluorescence signal, based on which the inhibitory activity of the compound on the kinase can be calculated. Basic detection principle is illustrated in FIG. 1.
(§2) In an enzymatic inhibitory activity detection, GST-labeled human recombinant JAK kinases, including JAK1/PV4774, JAK2/PV4210, JAK3/PV3855, TYK2/PV4790 and their corresponding specific substrates, including Tyr6 (Z′-LYTE® Kinase Assay Kit-Tyrosine 6 Peptide, JAK1/PV4122), Tyr4 (Z′-LYTE® Kinase Assay Kit-Tyrosine 4 Peptide, JAK2/PV3193), Tyr4 (Z′-LYTE® Kinase Assay Kit-Tyrosine 4 Peptide, JAK3/PV3193), Tyr3 (Z′-LYTE® Kinase Assay Kit-[…], TYK2/PV3192) are used. In all tests, development reagent A (PV3297) was used as the test agent. All materials mentioned above were purchased from Invitrogen.
(§3) (1) Preparation: kinase reaction buffer (working solution) is prepared according to the instruction; a concentration gradient of the test compound is prepared by dilution using the kinase reaction buffer (the highest compound concentration is 10 μM for JAK1, JAK2, and TYK2 detection, and 1 μM for JAK3 detection, respectively).
(§4) (2) 10 μl of reaction system, comprising 2.5 μL test compound, 5 μL kinase reaction buffer and 2.5 μL ATP solution (provided by the kit), is mixed and reaction is performed at room temperature for 1 h.
(§5) (3) Controls, including a solvent control without the test compound, a negative control without ATP and a positive control with the phosphorylated substrate, are tested together with the detection. All tests are carried out in triplicate.
(§6) (4) After the enzymatic reaction, 5 μL pre-formulated development buffer is added, and reaction is performed at room temperature for 1 h. Subsequently, the reaction is terminated by adding 5 μL stop buffer.
(§7) (5) The fluorescence signal in each well is detected by an Ascent Fluoroskan FL reader (Thermo Labsystems) at an excitation wavelength of 400 nm, and emission wavelengths of 445 nm and 520 nm. The proportion of substrate phosphorylation is obtained by reference to the fluorescence signal intensity C445/F520.
(§8) (6) The enzymatic inhibitory rate of the test compound can be calculated based on the following equation: Inhibitory rate (%)=1−the proportion of substrate phosphorylation in the detection well/the proportion of substrate phosphorylation in the solvent control well. The half-inhibitory concentration (IC50) can be calculated using an IC50 calculator based on the inhibitory rates of phosphorylation for the test compounds at different concentration gradients.
(§9) Based on the above method, the compounds described herein are enzymatically evaluated in vitro for JAKs (the concentration of the test compound is 30 nM for JAK3 and JAK2 test, and 300 nM for JAK1 test) using Xeljanz (tofacitinib citrate) as the positive control.

For a further experiment, the target named is JAK1 (Homo sapiens (Human), UniProt P23458). The experiment is described as follows: Z'-LYTE enzymatic activity detection, JAK1. Type of experiment: biochemical. To be noted: test compound 300 nM; for inhibition at 0.3 µM: read-out: JAK1 % inhibitory rate @300 nM. The method, then: as §1, §2, §3, §4, §5, §6, §7, §8, §9
The target of another experiment is JAK2 (Homo sapiens (Human), UniProt O60674). Briefly: Z'-LYTE enzymatic activity detection, JAK2. The experiment is classed as biochemical. As to conditions: test compound 30 nM; read-out: JAK2 % inhibitory rate @30 nM. How it is done:
as §1, §2, §3, §4, §5, §6, §7, §8, §9

The subject of the next experiment is CTLL-2 cells. Briefly: Cell growth activity assay (MTS), CTLL-2 cell model. The experiment is classed as cell-based, mouse. As to conditions: Mus musculus, CTLL-2, 300 nM, 24 h, read-out: CTLL-2 % growth rate @300 nM. The source says:
(§10) MTS assay is a routine method for cell toxicity detection. The basic principle is based on the capacity of dehydrogenase in the mitochondria of living cells to reduce a novel yellow […] MTS to formazan, so that the amount of living cells is proportional to the amount of formazan product by detecting the absorbance at 490 nm (OD), thereby speculating the amount of living cells according to the OD value, and understanding the capacity of the test compound to inhibit the growth of cells or to kill the cells.
In this experiment, mouse T-cell line CTLL-2 was used. The proliferation and growth of this cell line strongly depend on IL-2, and it is commonly used to evaluate the active titer of exogenous IL-2. By inhibiting the activity of kinase JAK1/3, the proliferation of CTLL-2 can be inhibited under in vitro culture. The activation and proliferation of T-cell is also important pathological characteristics for various immunological diseases. Thus, this model is also pathologically related.
By comparing the change of absorbance generated by the cells treated by the test compounds using MTS assay, the growth inhibitory activity of the test compounds on the model cells can be realized, and thereby potential inhibitory activity of the compounds on JAK1/3 pathway can be evaluated.
(§11) MTS is performed according to routine procedure in a 96-well plate.
The model cells are inoculated into each well of the 96-well plate at an appropriate concentration (about 20,000 cells/well). After 24 h, the test compounds are added at different concentration gradients (the highest concentration of 10 μM). A solvent control (DMSO) and a negative control are also performed at the same time. Each experiment is repeated for 3 times. The cells are detected after cultured for another 24 h.
CTLL-2 is a suspended cell. After incubation, 20 μL pre-formulated mixture of MTS and PMS (in a ratio of 20:1) is directly added to each well. After incubation at 37° C. for 2 h, it is then detected by a microplate reader (490 nm).
The effect of the test compound on cell growth is calculated by comparing the change of OD values between the test well and the solvent control well, after subtracting the background of the negative control. For the test compounds at different concentration gradients, the inhibitory rates on the growth of model cells and their half-growth inhibitory concentrations (GI50) are each calculated.
Based on the above method, cytological evaluation is performed to the compounds described herein (for the detection of CTLL-2 cell, the concentration of the test compound is 300 nM; for the detection of HeLa and HUVEC cell, the concentration of the test compound is […]).

In another experiment the test system is HeLa cells. The experiment is described as follows: Cell growth activity assay (MTS), HeLa cell model. The experiment is classed as cell-based, human. As to conditions: Homo sapiens, HeLa, 72 h, read-out: HeLa % growth rate. More on the design: activity: dose or concentration left out as unconfirmed.
Text: as §10
HeLa cell is a human cervical cancer cell line, and belongs to epithelial tumor cell line; HUVEC is a human umbilical vein endothelial cell, and belongs to primary endothelial cell; both types of cells express all subtypes except for JAK3.
The change of JAK kinase activity has no significant influence on other cell types except for the immune cells, and both cell models mentioned above are mainly used to evaluate whether there are any other kinase targets besides JAK kinases or there are nonselective cell toxicities.
In this experiment, a cultured cell model is incubated with the test compounds at different concentrations for a specific duration. The effect of the treatment by the test compound on the growth of cells is detected using MTS assay.
as §11
The model cells are inoculated into each well of the 96-well plate at an appropriate concentration (about 5000 cells/well). After 24 h, the test compounds are added at different concentration gradients (the highest final concentration is 40 μM). A solvent control (DMSO) and a negative control are also performed at the same time. Each experiment is repeated for 3 times. The cells are detected after cultured for another 72 h.
After all culture medium is aspirated out of the well, 100 μL fresh medium and 20 μL pre-formulated mixture of MTS and PMS (in a ratio of 20:1) are added to each well. After incubation at 37° C. for 2 h, it is then detected by a microplate reader (490 nm).
The cell growth inhibitory rate and GI50 of the test compound are calculated as above.
Based on the above method, cytological evaluation is performed to the compounds described herein (for the detection of CTLL-2 cell, the concentration of the test compound is 300 nM; […]).

Chain of JAK2 (O60674 whole entry): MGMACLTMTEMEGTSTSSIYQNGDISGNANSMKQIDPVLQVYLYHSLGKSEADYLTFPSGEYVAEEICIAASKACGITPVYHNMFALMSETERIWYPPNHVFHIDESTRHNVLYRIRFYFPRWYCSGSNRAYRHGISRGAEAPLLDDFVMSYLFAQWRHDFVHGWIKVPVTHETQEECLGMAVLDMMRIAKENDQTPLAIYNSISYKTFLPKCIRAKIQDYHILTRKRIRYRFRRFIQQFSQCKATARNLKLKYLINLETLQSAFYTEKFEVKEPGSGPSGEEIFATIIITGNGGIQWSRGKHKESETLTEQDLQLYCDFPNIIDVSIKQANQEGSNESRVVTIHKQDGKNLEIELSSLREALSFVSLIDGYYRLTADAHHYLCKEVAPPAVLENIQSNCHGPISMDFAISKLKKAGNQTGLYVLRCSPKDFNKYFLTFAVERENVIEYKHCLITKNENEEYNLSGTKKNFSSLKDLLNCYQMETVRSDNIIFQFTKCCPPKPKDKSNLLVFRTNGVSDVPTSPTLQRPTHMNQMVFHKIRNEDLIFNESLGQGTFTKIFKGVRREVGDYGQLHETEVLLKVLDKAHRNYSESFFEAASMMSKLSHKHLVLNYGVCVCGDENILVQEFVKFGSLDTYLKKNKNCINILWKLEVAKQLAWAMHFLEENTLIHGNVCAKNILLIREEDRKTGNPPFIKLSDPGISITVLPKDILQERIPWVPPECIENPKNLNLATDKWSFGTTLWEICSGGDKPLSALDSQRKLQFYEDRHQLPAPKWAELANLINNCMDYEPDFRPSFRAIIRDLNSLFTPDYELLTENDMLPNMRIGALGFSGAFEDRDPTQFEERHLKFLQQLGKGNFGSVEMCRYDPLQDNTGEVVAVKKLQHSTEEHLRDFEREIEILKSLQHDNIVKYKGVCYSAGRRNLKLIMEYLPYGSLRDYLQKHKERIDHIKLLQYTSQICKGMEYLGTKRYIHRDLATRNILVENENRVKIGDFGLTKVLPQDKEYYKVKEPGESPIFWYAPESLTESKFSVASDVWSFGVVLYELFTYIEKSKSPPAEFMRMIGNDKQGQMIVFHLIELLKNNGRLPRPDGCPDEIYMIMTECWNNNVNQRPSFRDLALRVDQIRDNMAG
Chain of JAK3 (P52333 whole entry): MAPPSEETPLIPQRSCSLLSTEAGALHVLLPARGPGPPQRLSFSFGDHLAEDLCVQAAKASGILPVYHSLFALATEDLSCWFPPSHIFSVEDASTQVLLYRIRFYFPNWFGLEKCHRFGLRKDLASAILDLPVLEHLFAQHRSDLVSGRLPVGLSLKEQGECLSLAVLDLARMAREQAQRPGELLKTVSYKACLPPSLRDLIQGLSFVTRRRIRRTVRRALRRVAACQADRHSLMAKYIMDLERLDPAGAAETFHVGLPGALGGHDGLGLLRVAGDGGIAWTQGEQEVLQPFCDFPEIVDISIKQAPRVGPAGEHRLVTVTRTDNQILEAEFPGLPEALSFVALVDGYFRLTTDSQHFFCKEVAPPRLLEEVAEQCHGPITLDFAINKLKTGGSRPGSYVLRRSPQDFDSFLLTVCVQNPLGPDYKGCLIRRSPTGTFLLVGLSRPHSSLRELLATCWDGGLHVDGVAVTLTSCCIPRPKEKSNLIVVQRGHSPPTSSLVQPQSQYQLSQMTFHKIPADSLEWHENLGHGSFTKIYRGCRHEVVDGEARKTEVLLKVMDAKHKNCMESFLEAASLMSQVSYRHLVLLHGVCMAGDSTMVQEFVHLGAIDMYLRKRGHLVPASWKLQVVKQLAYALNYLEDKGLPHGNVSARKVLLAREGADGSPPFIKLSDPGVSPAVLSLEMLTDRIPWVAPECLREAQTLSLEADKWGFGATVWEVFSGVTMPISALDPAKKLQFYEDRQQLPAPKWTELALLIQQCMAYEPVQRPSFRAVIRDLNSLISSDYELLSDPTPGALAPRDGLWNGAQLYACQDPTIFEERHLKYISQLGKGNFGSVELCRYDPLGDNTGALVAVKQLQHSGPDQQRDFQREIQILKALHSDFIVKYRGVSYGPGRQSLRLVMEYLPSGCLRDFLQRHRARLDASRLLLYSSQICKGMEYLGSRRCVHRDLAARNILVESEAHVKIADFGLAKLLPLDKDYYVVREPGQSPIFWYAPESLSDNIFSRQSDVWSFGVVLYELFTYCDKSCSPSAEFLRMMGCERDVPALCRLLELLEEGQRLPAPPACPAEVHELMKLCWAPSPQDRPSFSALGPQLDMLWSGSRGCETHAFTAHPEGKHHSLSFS
Chain of JAK1 (P23458 whole entry): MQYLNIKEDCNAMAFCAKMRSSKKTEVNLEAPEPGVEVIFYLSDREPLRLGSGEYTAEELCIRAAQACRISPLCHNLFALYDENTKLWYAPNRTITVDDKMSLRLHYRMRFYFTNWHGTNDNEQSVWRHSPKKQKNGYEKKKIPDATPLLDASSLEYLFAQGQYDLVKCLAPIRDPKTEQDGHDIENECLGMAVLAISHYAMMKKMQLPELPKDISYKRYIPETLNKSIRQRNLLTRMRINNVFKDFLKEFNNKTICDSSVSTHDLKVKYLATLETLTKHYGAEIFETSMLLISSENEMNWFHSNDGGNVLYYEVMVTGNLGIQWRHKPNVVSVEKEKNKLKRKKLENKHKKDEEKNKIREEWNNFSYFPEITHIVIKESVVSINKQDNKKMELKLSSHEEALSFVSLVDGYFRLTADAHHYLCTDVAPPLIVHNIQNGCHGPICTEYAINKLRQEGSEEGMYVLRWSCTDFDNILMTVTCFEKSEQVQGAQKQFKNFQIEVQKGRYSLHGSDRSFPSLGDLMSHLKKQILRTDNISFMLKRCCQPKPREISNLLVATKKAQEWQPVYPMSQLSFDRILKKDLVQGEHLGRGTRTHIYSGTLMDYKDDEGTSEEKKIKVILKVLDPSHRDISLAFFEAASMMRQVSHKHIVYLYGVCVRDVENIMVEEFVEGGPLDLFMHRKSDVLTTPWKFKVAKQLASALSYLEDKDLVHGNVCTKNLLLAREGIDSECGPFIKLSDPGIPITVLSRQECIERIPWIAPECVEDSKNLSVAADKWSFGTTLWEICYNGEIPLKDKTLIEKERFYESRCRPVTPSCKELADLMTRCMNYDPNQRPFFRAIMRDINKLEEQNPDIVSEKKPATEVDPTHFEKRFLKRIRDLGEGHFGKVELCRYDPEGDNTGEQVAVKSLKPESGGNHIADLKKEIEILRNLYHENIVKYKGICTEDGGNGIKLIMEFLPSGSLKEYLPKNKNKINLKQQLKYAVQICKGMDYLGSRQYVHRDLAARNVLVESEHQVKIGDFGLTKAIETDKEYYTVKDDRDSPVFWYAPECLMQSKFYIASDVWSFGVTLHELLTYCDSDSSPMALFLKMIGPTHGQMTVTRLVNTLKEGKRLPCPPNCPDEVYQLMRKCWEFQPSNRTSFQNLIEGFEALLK

Regarding `C=CC(=O)Nc1cc(Nc2ncc(Cl)c(NCCCNC(=O)c3ccc(C(F)(F)F)cc3)n2)ccc1F` [Example 13, N-(3-(2-(3-acrylamido-4-fluoro-phenylamino)-5-chloropyrimidinyl-4-amino)propyl)-4-trifluoromethylbenzamide], at JAK3, the “JAK3 RV (ratio between the inhibitory rate of the test compound and that of Xeljanz)” value is on record as 0.96; the inhibition at 0.03 µM was 79%. On JAK1, the “JAK1 RV (ratio between the inhibitory rate of the test compound and that of Xeljanz)” value is given as 0.40; the inhibition at 0.3 µM worked out at 35%. For the same molecule, on JAK2, the inhibition at 0.03 µM worked out at 0%. Moreover, the activity at 0.3 µM in the experiment on CTLL-2 cells amounted to 63%. Besides, the activity in the experiment with HeLa cells was determined as 1%.
As for `C=CC(=O)N(C)c1cc(Nc2ncc(Cl)c(NCCCNC(=O)c3c(F)cc(F)cc3F)n2)ccc1F` [Example 36, N-(3-(5-chloro-2-(4-fluoro-3-(N-methylacrylamido)phenylamino)pyrimidinyl-4-amino)propyl)-2,4,6-trifluorobenzamide], on JAK3, the “JAK3 RV (ratio between the inhibitory rate of the test compound and that of Xeljanz)” value was 0.53; the inhibition at 0.03 µM stood at 104%. Moreover, on JAK1, the “JAK1 RV (ratio between the inhibitory rate of the test compound and that of Xeljanz)” value is recorded as 0.25; the inhibition at 0.3 µM is 42%. Besides, the inhibition at 0.03 µM on JAK2 is 0%. Also, the activity at 0.3 µM in the experiment with CTLL-2 cells stood at 32%. Moreover, in the experiment on HeLa cells, the activity worked out at 38%.
As for `C=CC(=O)N(C)c1cc(Nc2ncc(Cl)c(NCCCNC(=O)c3ccc(OC)cc3)n2)ccc1F` [Example 40, N-(3-(5-chloro-2-(4-fluoro-3-(N-methylacrylamido)phenylamino)pyrimidinyl-4-amino)propyl)-4-methoxylbenzamide], at JAK3, the “JAK3 RV (ratio between the inhibitory rate of the test compound and that of Xeljanz)” value is 0.46; the inhibition at 0.03 µM came to 89%. In addition, at JAK1, the “JAK1 RV (ratio between the inhibitory rate of the test compound and that of Xeljanz)” value is 0.02; the inhibition at 0.3 µM came out at 4%. For the same molecule, the inhibition at 0.03 µM at JAK2 came to 0%. In addition, the activity at 0.3 µM in the experiment on CTLL-2 cells was 39%. The activity with HeLa cells is 82%.
With `C=CC(=O)N(C)c1cc(Nc2ncc(Cl)c(NCCCNC(=O)c3ccc(C#N)nc3)n2)ccc1F` [Example 44, N-(3-(5-chloro-2-(4-fluoro-3-(N-methylacrylamido)phenylamino)pyrimidinyl-4-amino)propyl)-6-cyanonicotinamide], at JAK3, the “JAK3 RV (ratio between the inhibitory rate of the test compound and that of Xeljanz)” value amounted to 0.58; the inhibition at 0.03 µM is 113%. Moreover, on JAK1, the “JAK1 RV (ratio between the inhibitory rate of the test compound and that of Xeljanz)” value is given as 0.34; the inhibition at 0.3 µM was determined as 58%. Further, the inhibition at 0.03 µM at JAK2 worked out at 0%. The activity at 0.3 µM with CTLL-2 cells worked out at 29%. Further, the activity in the experiment on HeLa cells turned out to be 39%.
As to `C=CC(=O)N(C)c1cc(Nc2ncc(Cl)c(NCCCNC(=O)c3ccc(O)cc3)n2)ccc1F` [Example 48, N-(3-(5-chloro-2-(4-fluoro-3-(N-methylacrylamido)phenylamino)pyrimidinyl-4-amino)propyl)-4-hydroxybenzamide], at JAK3, the “JAK3 RV (ratio between the inhibitory rate of the test compound and that of Xeljanz)” value amounted to 0.56; the inhibition at 0.03 µM is 109%. Also, the inhibition at 0.3 µM at JAK1 turned out to be 0%. Further, the inhibition at 0.03 µM on JAK2 was found to be 0%. Moreover, the activity at 0.3 µM in the experiment on CTLL-2 cells worked out at 50%. For the same molecule, in the experiment with HeLa cells, the activity turned out to be 90%.
`C=CC(=O)N(C)c1cc(Nc2ncc(Cl)c(NCCCNC(=O)c3ccc(C#N)cc3F)n2)ccc1F` [Example 52, N-(3-(5-chloro-2-(4-fluoro-3-(N-methylacrylamido)phenylamino)pyrimidinyl-4-amino)propyl)-4-cyano-2-fluorobenzamide]: on JAK3, the “JAK3 RV (ratio between the inhibitory rate of the test compound and that of Xeljanz)” value stood at 0.54; the inhibition at 0.03 µM is 105%. Moreover, on JAK1, the “JAK1 RV (ratio between the inhibitory rate of the test compound and that of Xeljanz)” value was found to be 0.08; the inhibition at 0.3 µM turned out to be 14%. On JAK2, the inhibition at 0.03 µM was found to be 0%. The activity at 0.3 µM with CTLL-2 cells was 29%. Besides, in the experiment on HeLa cells, the activity came out at 64%.
Take `C=CC(=O)N(C)c1cc(Nc2ncc(Cl)c(NCCCNC(=O)c3ccc(C#N)c(F)c3)n2)ccc1F` [Example 56, N-(3-(5-chloro-2-(4-fluoro-3-(N-methylacrylamido)phenylamino)pyrimidinyl-4-amino)propyl)-4-cyano-3-fluorobenzamide]: at JAK3, the “JAK3 RV (ratio between the inhibitory rate of the test compound and that of Xeljanz)” value is given as 0.59; the inhibition at 0.03 µM turned out to be 116%. Further, on JAK1, the “JAK1 RV (ratio between the inhibitory rate of the test compound and that of Xeljanz)” value is 0.05; the inhibition at 0.3 µM was 9%. In addition, the inhibition at 0.03 µM on JAK2 worked out at 0%. The activity at 0.3 µM in the experiment on CTLL-2 cells is 30%. For the same molecule, the activity in the experiment on HeLa cells came to 60%.
